Data on 15 molecules can be found in PubChem BioAssay (NCI).

SMILES strings stand for the structures.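 Growth conditions: 96-well plates. Treatment: test compound, 48 hours, 5 concentrations. Analysis: linear interpolation between bracketing concentrations; unreached endpoints set to highest concentration. Here, GI50 denotes the concentration required for 50% inhibition of growth. TGI: total growth inhibition.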

Some test systems named below: NCI-H226 lung; NCI-H522 lung; SK-MEL-5 melanoma; HL-60(TB) leukemia; OVCAR-3 ovarian; NCI-H460 lung; HOP-92 NSCLC; ACHN renal; OVCAR-4 ovarian; HS 578T breast.
What all share (experiment): NCI tumour cell line growth inhibition, 48 h

Turning to `NC(=O)c1cccc([N+](=O)[O-])c1`, the TGI in the test on NCI-H226 lung, with NCI-H522 lung, with SK-MEL-5 melanoma, with HL-60(TB) leukemia, in the test on OVCAR-3 ovarian and in the test on NCI-H460 lung was more than 100 µM in each case.

Consider `Cc1ccc(S(=O)(=O)n2c3ccc(Br)cc3c3nc4ccccc4nc32)cc1`, for which the TGI is 0.879 µM in the test on NCI-H226 lung; more than 100 µM with NCI-H522 lung; more than 100 µM in the test on HOP-92 NSCLC; more than 100 µM with ACHN renal; more than 100 µM with OVCAR-4 ovarian; more than 100 µM in the test with HS 578T breast. The TGI with SK-MEL-5 melanoma, with OVCAR-3 ovarian and with NCI-H460 lung was more than 100 µM in each case.

Regarding `Cc1csc(NC23CC4CC(CC(C4)C2)C3)[n+]1C(P(=O)([O-])O)P(=O)(O)O` (centres undefined), the TGI with NCI-H226 lung, in the test with NCI-H522 lung, in the test on HOP-92 NSCLC, with ACHN renal, with HS 578T breast and with SK-MEL-5 melanoma was more than 100 µM throughout. The TGI in the test on OVCAR-3 ovarian and with NCI-H460 lung was more than 100 µM each time.

With `COC(=O)C1(Cc2ccc3c(c2)CCC3)Cc2ccccc2C1O` (centres undefined), the TGI in the test on NCI-H226 lung was determined as 36.6 µM; in the test on NCI-H522 lung it was 30.1 µM; in the test with ACHN renal, 38.3 µM; with OVCAR-4 ovarian, 27.8 µM; with HS 578T breast, 48.1 µM; with SK-MEL-5 melanoma, 29.8 µM. In addition, the results for the TGI in the test with HL-60(TB) leukemia, in the test with OVCAR-3 ovarian and in the test with NCI-H460 lung were more than 100 µM, 36.8 µM and 38.1 µM, respectively.

In the case of `CCNCCCn1c2c(c3ccc(Cl)cc3c1=O)C(=O)c1cc(OC)cnc1-2`, the GI50 in the test on NCI-H226 lung is 1.4 µM; in the test with NCI-H522 lung, 0.263 µM; in the test on HOP-92 NSCLC, 3.01 µM; in the test with ACHN renal, 0.154 µM; in the test on OVCAR-4 ovarian, 0.542 µM; in the test on HS 578T breast, 1.74 µM. The GI50 is 0.813 µM in the test with SK-MEL-5 melanoma and 2.13 µM in the test on OVCAR-3 ovarian. Moreover, the TGI in the test with NCI-H226 lung amounted to 5.04 µM; with NCI-H522 lung it was 24.5 µM; in the test on HOP-92 NSCLC, 27.2 µM; in the test with ACHN renal, 1.35 µM; in the test on OVCAR-4 ovarian it was 2.4 µM; in the test with HS 578T breast, 4.31 µM. For the same molecule, the TGI with SK-MEL-5 melanoma amounted to 2.49 µM; with OVCAR-3 ovarian it was 19.6 µM.

As to `O=c1cc(N2CCCC2)[nH]c(=O)n1Cc1ccccc1`, the TGI in the test with NCI-H226 lung, in the test with NCI-H522 lung, with HOP-92 NSCLC, in the test on ACHN renal, in the test with OVCAR-4 ovarian and in the test on SK-MEL-5 melanoma was more than 100 µM each time. The TGI in the test on HL-60(TB) leukemia and with NCI-H460 lung was more than 100 µM in each case.

Consider `CSCSSC`, for which the TGI in the test on NCI-H226 lung, in the test on NCI-H522 lung, with HOP-92 NSCLC, with ACHN renal, in the test with OVCAR-4 ovarian and in the test with HS 578T breast was more than 100 µM each time. Further, the TGI in the test with SK-MEL-5 melanoma, with OVCAR-3 ovarian and in the test on NCI-H460 lung was more than 100 µM throughout.

On to `CCOc1ccc(N/C(=C(/C(Cl)=C(/Cl)N(CC)CC)[N+](=O)[O-])n2nnc3ccccc32)cc1`, for which the TGI in the test on NCI-H226 lung is more than 100 µM; with ACHN renal, 47.9 µM; in the test with OVCAR-4 ovarian it was 52.8 µM; with HS 578T breast it was more than 100 µM; with OVCAR-3 ovarian it was 24.3 µM; in the test on NCI-H460 lung, more than 100 µM.

As for `Cc1ccc(OCC2OC(n3cnc4nc(N)nc(Cl)c43)CC2Oc2ccc(C)cc2)cc1` (centres undefined), the TGI was 47.5 µM in the test on NCI-H226 lung; 47.8 µM in the test on NCI-H522 lung; 70 µM in the test on HOP-92 NSCLC; 35 µM in the test with ACHN renal; more than 100 µM in the test with OVCAR-4 ovarian; 45.6 µM in the test with HS 578T breast. The TGI in the test with SK-MEL-5 melanoma was determined as 41.3 µM; in the test on OVCAR-3 ovarian, 41 µM; in the test with NCI-H460 lung it was 97 µM.

Consider `NC(=O)NNc1nc(-c2ccccc2)cs1`, for which the TGI with NCI-H226 lung, in the test with NCI-H522 lung, with ACHN renal, in the test with OVCAR-4 ovarian, in the test with HS 578T breast and with SK-MEL-5 melanoma was more than 100 µM in each case. Besides, the TGI in the test on OVCAR-3 ovarian and with NCI-H460 lung was more than 100 µM each time.

As to `O=[N+]([O-])c1ccc2sc(C=Nc3cnccn3)cc2c1`, the TGI in the test on NCI-H522 lung was more than 100 µM; in the test with HOP-92 NSCLC, more than 100 µM; in the test with ACHN renal, more than 100 µM; in the test with HS 578T breast it was 49.5 µM; in the test on SK-MEL-5 melanoma it was more than 100 µM; with HL-60(TB) leukemia it was 43.8 µM. Also, the TGI in the test on OVCAR-3 ovarian and in the test with NCI-H460 lung was more than 100 µM throughout.

As to `O=S(Nc1ccccc1)c1ccc(N2CCOCC2)cc1` (centres undefined), the TGI with NCI-H226 lung, with NCI-H522 lung, in the test on ACHN renal, with OVCAR-4 ovarian, with HS 578T breast and in the test with SK-MEL-5 melanoma was more than 100 µM throughout. The TGI in the test on HL-60(TB) leukemia, with OVCAR-3 ovarian and in the test with NCI-H460 lung was more than 100 µM each time.

Turning to `CO/N=C1\CC(NC(=O)CNC(=O)OC(C)(C)C)c2ccsc21` (centres undefined), the TGI in the test with NCI-H226 lung, in the test on HOP-92 NSCLC, in the test on OVCAR-4 ovarian, in the test on HS 578T breast, in the test with SK-MEL-5 melanoma and with HL-60(TB) leukemia was more than 100 µM each time. Besides, the TGI in the test on OVCAR-3 ovarian and in the test on NCI-H460 lung was more than 100 µM each time.

Turning to `COC(OC)[C@@H]1OC[C@H](n2cnc3c(N)ncnc32)[C@H]1O`, the TGI in the test on NCI-H226 lung, with HOP-92 NSCLC, in the test on ACHN renal, in the test with OVCAR-4 ovarian, with HS 578T breast and in the test with SK-MEL-5 melanoma was more than 100 µM each time. Also, the TGI with OVCAR-3 ovarian and in the test with NCI-H460 lung was more than 100 µM throughout.

As for `C=C[C@@H](C)[C@H](NS(=O)(=O)c1ccc(C)cc1)C(=O)OCC`, the TGI in the test on NCI-H226 lung is more than 100 µM; with NCI-H522 lung it was 57.5 µM; in the test on ACHN renal it was more than 100 µM; in the test on OVCAR-4 ovarian, more than 100 µM; in the test on HS 578T breast, 56.4 µM; in the test on HL-60(TB) leukemia it was more than 100 µM. The TGI in the test on OVCAR-3 ovarian is 43.1 µM; in the test with NCI-H460 lung, more than 100 µM.
